# Active and inactive are the calls of the source.
# Experiments:
# [1] = molecular target: T1, Alkaline phosphatase, tissue-nonspecific isozyme (Homo sapiens, UniProt P05186)
# T1 sequence (P05186 whole entry): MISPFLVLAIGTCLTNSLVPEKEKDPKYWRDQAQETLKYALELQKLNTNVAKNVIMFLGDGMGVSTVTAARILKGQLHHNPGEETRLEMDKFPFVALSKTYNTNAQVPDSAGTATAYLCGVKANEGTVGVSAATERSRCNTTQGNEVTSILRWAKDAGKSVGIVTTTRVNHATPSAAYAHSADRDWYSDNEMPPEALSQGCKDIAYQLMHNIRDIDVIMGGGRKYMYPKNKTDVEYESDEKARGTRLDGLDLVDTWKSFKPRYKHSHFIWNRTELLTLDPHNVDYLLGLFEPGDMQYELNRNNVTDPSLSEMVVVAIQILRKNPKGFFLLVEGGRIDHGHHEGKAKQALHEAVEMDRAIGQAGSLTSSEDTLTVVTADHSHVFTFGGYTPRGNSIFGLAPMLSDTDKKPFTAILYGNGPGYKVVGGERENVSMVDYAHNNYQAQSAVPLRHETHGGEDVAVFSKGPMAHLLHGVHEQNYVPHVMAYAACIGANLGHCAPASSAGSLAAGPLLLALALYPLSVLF
# Mucolipin-3 = molecular target: T2, Mucolipin-3 (Homo sapiens, UniProt Q8TDD5); assay: Dose response cell-based high-throughput screening assay for agonists of the transient receptor potential channel ML3 (TRPML3). [Related pubchem assays: 1526, 1424, 1448 ]; assay type: functional
# T2 sequence (Q8TDD5 whole entry): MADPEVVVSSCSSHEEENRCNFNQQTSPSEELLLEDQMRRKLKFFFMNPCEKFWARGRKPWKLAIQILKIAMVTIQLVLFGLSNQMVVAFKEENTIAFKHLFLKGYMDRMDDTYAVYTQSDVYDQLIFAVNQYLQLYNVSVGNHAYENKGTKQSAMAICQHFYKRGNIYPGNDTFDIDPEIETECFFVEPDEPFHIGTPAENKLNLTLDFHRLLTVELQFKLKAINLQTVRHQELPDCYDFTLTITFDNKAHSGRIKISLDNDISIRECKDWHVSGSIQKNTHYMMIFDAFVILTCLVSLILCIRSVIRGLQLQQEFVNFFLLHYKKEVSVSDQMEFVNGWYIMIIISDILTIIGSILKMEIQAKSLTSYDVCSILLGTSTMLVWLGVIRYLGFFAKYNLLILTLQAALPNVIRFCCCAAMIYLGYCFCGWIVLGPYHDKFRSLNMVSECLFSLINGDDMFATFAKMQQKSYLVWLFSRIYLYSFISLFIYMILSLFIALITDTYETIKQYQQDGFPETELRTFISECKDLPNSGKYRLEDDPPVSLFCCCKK
# Ion channel NompC = Ion channel NompC (Danio rerio, UniProt Q7T1G6); assay: Fluorescence counterscreen assay for TRPML3 agonists: dose response cell-based high-throughput screening assay to identify agonists of the transient receptor potential channel N1 (TRPN1). [Related pubchem assays: 1526, 1424, 1448 ]; assay type: functional
# Chain of Ion channel NompC (Q7T1G6 whole entry): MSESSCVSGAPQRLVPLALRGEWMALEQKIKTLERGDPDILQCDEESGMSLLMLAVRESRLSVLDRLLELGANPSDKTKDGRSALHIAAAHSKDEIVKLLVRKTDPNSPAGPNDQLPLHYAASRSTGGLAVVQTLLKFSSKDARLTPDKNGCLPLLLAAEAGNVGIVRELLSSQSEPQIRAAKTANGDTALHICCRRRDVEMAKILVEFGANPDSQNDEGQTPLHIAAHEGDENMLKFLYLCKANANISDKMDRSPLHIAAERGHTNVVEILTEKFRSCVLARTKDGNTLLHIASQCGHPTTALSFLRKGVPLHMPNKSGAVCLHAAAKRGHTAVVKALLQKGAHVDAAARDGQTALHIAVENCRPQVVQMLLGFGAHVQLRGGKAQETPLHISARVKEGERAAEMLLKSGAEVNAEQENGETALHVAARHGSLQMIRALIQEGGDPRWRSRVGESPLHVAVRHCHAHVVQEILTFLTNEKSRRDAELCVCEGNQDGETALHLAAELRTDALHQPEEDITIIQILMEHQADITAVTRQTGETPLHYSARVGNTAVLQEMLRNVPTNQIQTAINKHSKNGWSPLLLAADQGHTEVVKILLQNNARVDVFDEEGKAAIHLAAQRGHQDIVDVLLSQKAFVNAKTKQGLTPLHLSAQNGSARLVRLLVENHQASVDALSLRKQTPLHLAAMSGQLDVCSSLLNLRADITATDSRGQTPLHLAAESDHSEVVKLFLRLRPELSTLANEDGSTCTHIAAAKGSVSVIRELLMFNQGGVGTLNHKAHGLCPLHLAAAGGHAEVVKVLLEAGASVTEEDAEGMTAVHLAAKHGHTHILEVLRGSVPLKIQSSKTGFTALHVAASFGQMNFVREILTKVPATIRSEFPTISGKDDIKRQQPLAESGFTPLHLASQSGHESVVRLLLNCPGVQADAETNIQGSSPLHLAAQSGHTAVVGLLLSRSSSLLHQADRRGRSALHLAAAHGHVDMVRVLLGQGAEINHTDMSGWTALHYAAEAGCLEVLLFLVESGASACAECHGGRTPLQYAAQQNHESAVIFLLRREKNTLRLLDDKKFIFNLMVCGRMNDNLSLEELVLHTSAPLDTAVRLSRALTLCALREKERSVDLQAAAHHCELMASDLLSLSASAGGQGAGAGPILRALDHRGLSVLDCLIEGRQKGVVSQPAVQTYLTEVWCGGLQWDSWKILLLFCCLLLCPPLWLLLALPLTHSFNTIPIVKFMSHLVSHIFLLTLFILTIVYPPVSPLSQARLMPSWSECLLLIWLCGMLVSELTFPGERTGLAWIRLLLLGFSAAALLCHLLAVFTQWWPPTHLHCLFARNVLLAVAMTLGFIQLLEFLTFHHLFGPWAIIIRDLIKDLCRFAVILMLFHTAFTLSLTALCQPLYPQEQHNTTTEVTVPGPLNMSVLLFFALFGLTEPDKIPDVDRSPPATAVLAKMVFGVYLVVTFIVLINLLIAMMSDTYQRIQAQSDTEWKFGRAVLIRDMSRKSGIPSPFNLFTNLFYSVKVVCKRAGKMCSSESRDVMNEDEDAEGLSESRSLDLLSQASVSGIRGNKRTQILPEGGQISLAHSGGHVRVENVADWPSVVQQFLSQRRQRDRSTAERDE
# NADPH oxidase 1 = molecular target: T3, NADPH oxidase 1 (Homo sapiens, UniProt Q9Y5S8); assay type: functional, cell-based;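 note: Cell-based assay with luminescence read-out, IC50 derived from inhibitor dose-response curves; intracellular ROS from endogenous NOX1 in intact HT29 colon cancer cells; potency of inhibitors that lower the ROS luminescence signal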
# T3 sequence (Q9Y5S8 whole entry): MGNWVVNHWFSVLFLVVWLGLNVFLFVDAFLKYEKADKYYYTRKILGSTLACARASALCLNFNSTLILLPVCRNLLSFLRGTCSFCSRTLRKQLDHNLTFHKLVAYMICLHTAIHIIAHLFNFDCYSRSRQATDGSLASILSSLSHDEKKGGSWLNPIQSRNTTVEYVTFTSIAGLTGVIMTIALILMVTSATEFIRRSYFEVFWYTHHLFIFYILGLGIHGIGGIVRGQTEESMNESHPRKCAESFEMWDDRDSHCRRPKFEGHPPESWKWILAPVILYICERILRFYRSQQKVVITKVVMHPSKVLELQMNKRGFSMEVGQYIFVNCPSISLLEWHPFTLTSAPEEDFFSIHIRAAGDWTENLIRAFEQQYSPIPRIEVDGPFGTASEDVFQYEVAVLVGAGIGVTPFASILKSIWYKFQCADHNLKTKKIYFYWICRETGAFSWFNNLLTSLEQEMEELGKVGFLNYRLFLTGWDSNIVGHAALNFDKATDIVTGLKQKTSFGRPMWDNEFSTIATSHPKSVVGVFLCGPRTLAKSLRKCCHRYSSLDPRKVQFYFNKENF
# [2] = molecular target: T4, Eukaryotic translation initiation factor 2-alpha kinase 3 (Homo sapiens, UniProt Q9NZJ5); assay: Dose response cell-based high-throughput screening assay to measure PERK inhibition. [Related pubchem assays: 1416 ]; assay type: functional
# T4 sequence (Q9NZJ5 whole entry): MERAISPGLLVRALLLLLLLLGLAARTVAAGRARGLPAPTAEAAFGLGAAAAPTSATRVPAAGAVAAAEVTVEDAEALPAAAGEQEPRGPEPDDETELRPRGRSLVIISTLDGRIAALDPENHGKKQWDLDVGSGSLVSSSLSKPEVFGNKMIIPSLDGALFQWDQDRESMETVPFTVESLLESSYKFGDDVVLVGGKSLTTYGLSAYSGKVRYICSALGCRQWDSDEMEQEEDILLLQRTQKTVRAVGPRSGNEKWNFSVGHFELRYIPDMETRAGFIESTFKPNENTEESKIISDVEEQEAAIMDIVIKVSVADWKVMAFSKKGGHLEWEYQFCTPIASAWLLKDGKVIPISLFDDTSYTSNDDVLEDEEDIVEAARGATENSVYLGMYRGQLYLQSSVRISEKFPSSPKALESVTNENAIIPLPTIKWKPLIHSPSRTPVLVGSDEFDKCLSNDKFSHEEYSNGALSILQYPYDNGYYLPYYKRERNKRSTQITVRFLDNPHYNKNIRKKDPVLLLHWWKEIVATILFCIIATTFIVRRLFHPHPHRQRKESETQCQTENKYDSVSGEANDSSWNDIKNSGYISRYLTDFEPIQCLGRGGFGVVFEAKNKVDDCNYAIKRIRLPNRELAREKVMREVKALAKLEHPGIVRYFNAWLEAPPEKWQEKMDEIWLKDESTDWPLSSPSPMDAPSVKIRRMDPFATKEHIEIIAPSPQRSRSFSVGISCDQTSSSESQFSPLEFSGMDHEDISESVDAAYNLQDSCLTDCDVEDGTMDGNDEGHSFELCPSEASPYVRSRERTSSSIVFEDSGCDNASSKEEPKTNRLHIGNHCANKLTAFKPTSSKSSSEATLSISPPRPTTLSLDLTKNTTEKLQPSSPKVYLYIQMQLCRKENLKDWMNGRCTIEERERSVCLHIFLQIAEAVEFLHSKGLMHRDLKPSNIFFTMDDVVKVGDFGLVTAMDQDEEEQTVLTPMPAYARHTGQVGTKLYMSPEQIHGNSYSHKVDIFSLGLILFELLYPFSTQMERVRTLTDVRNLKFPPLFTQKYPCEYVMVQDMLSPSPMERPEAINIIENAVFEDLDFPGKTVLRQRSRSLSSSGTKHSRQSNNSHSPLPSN
# [3] = molecular target: T4, Eukaryotic translation initiation factor 2-alpha kinase 3; assay: Counterscreen assay for PERK inhibitors: Dose response cell-based high throughput screening assay to measure inhibition of PERK at 6 hours. [Related pubchem assays: 1522, 1416 ]; assay type: functional
# [4] = A Cell Based Secondary Assay To Explore Cytotoxicity of Compounds that Sensitize Mycobacterium Tuberculosis to Beta-Lactam Antibiotics.; assay type: functional
# Paired box protein Pax-8 = Paired box protein Pax-8 (Homo sapiens, UniProt Q06710); assay: PAX8 transcriptional activity inhibition in RMG-I – RMG-I cells, luciferase, cherry-pick, dose response (AID 687027); assay type: functional, cell-based;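 note: luciferase reporter driven by Pax8 target thyroperoxidase promoter measured by SteadyGlo luminescence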
# Chain of Paired box protein Pax-8 (Q06710 whole entry): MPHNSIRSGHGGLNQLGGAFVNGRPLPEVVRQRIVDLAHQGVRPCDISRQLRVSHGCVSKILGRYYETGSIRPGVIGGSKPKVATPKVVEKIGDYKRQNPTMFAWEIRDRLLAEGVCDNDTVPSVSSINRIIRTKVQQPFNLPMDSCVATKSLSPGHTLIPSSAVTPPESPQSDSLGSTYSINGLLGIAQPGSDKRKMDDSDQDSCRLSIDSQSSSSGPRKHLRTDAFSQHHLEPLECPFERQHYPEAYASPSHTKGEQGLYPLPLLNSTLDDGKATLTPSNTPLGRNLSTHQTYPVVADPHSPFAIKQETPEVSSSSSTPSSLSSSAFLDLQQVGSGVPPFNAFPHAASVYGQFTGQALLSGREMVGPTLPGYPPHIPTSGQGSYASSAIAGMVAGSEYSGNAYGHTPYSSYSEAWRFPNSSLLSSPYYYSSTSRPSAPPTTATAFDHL
# [5] = OVCAR-3 cell viability loss – plate reader, dry powder samples, PAX8 inhibitor project, dose response (AID 743044); assay type: functional, cell-based
# [6] = OVCAR8 cell viability loss – plate reader, dry powder samples, PAX8 project, dose response (AID 743197); assay type: functional, cell-based; conditions: OVCAR-8
# [7] = P. falciparum Dd2 growth inhibitors, dose response, SYBR Green, cherry-picked samples (AID 1159567); assay type: functional, cell-based
# [8] = toxicity to human hepatoma HepG2 cells – cell-based, cherry-picked samples, cytotoxicity control, dose response (AID 1159577); assay type: functional
# [9] = growth inhibition of yeast DHODH-expressing 3D7 parasites – SYBR Green, dry powder samples, dose response (AID 1159570); assay type: functional, cell-based;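 note: parasite growth measured after 72 hours of compound exposure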
# [10] = toxicity to human HepG2 hepatoma cells – cell-based, plate reader, dry powder samples, cytotoxicity control, dose response (AID 1159569); assay type: functional;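 note: inhibitor potency with signal falling toward the positive control level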
# [11] = Dd2 malaria parasite growth inhibition potency – SYBR Green, dry powder samples, dose response (AID 1159566); assay type: functional, cell-based;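 note: potency for growth inhibition with lower SYBR green DNA signal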
# [12] = growth inhibition of PfATP4-mutant resistant parasites – NITD609-resistant line, SYBR Green, dry powder, dose response (AID 1159571); assay type: functional, cell-based;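 note: parasites synchronized at ring stage by sorbitol before testing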
compound,measurement,setting,value
COc1ccc(-c2nc3ccc(C)cn3c2NCc2ccc3c(c2)OCO3)cc1,EC50,[1],> 100 µM (not active)
CCOC(=O)c1c(NC(=O)COc2ncnc3ccccc23)sc(C)c1C,EC50,[1],> 100 µM (not active)
CCNC(=S)N(Cc1cccs1)Cc1cc2cc(OCC)ccc2nc1O,EC50,Mucolipin-3,> 29.9 µM (not active)
same,EC50,Ion channel NompC,> 29.9 µM (not active)
C=C(NNc1c(Cl)c(Cl)nc(C(=O)O)c1Cl)c1ccc(O)cc1,IC50,NADPH oxidase 1,4.45 µM (active)
CC(=O)Nc1ccc(NC(=O)Nc2cc(C)cc(C)c2)cc1,EC50,[2],> 55.7 µM (not active)
same,EC50,[3],> 55.7 µM (not active)
Nc1c(Cl)cc(-c2csc(N3CCCC3c3nc4cc(Cl)c(N5CCCCC5)cc4n3CCCO)n2)cc1Cl (stereo not given),CC50,[4],> 40 µM (active)
COc1ccccc1C#Cc1ccc2c(c1)O[C@@H](CN(C)Cc1cncnc1)[C@H](C)CN([C@H](C)CO)S2(=O)=O,AC50,Paired box protein Pax-8,2.16 µM (active)
same,AC50,[5],32.6 µM (active)
same,AC50,[6],29 µM (active)
C/C=C/c1ccc([C@H]2[C@H](CO)N(c3nc(CC)cs3)[C@H]2CNC(C)C)cc1,AC50,[7],0.829 µM (active)
same,AC50,[8],20 µM (active)
C[C@@H]1CN([C@@H](C)CO)C(=O)c2cccc(NC(=O)c3ccc(-c4nccs4)cc3)c2O[C@@H]1CN(C)C(=O)Nc1cccc2ccccc12,AC50,[9],0.956 µM (active)
same,AC50,[10],53.3 µM (active)
same,AC50,[7],2.9 µM (active)
same,AC50,[11],0.334 µM (active)
same,AC50,[8],> 39 µM (inactive)
same,AC50,[12],0.733 µM (active)
Oc1ccc(-c2nc(-c3ccccc3)c(-c3ccccc3)[nH]2)cc1,IC50,NADPH oxidase 1,> 17 µM (not active)

# Source: ChEMBL document CHEMBL1201862, “PubChem BioAssay data set” (2004)
